{"source": "patent US10555687B2", "about": "“Apparatus and method for physiologic and pharmacodynamic assessment and monitoring” (priority 2015, dated 2020)", "system": "Aβ fiber", "experiment": "PRD pharmacological assessment of sciatic nerve pain", "format": "in vivo, human", "excerpt": "According to one embodiment, the neuro-stimulator can be integrated with a smartphone, thereby allowing for the detection of mechanism specific nociception via recording and parameterization of the PRD under a multitude of conditions. Parameterization of the PRD curve includes two static measures: a pupillary baseline and peak dilation diameters (dilation amplitude or DA), and at least three dynamic measures: slopes of the ascending and descending portions of the PRD curve representing the dilation velocity (DV) and recovery velocity, as well as the duration of the reflex, and the area under the curve representing pain sensitivity/intensity.\nBy one embodiment, large-fiber neuropathic pain is transmitted via Aβ nerve fiber type, which is stimulated at 2000 Hz. Neuropathic pain is detected and measured by examining the relationship of the parameters of the PRD to a 2000 Hz stimulus. Small fiber neuropathic pain is transmitted via C-fiber and Aδ fibers, and is often seen with metabolic disorders such as diabetes or chemotherapy induced neuropathic pain. The neuropathic pain index (NPI) integrates the intensity stimulus (mA) relative to the DV, DA, AUC and recovery time. Accordingly, neuropathic pain can be defined with respect to whether the pain is a small fiber based pain or a large fiber based pain. Moreover the NPI provisions for flexibility of monitoring an intervention. […]"}
{"smiles": "NCC1(CC(=O)O)CCCCC1", "note": "[Gabapentin]", "values": [{"measurement": "pain sensitivity (PRD) in sciatic nerve pain", "setting": "compression of the Aβ fiber, large fiber neuropathic pain (FIG. 8B)", "value": "diminishes the pain sensitivity"}, {"measurement": "area under the PRD curve compared with opioid intervention", "setting": "sciatic nerve pain (FIG. 8B)", "value": "substantially smaller"}]}
